For 69 compounds, IC50 results are on record in patent US9365588B2, “Benzoxazines as modulators of ion channels” (Vertex Pharmaceuticals Incorporated, priority 2011, dated 2016).

In this assay the target is human NaV 1.7 (Homo sapiens, UniProt Q15858). Nature of the assay: E-VIPR optical membrane potential assay with electrical stimulation. Type of assay: cell-based. Conditions: sodium channel inhibition; read-out: Binned Activity Data (IC50). An outline of the steps: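 Membrane-potential read-out: background-subtracted 460 nm/580 nm ratio during a 9 s current-controlled stimulus, 400 Hz scan. Before stimulation, NaV1.7-HEK cells carried coumarin/oxonol dye and compound (final DMSO 0.625%) for 20–35 min at room temperature; tetracaine 125 μM served as positive control.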
human NaV 1.7, sequence (Q15858 whole entry): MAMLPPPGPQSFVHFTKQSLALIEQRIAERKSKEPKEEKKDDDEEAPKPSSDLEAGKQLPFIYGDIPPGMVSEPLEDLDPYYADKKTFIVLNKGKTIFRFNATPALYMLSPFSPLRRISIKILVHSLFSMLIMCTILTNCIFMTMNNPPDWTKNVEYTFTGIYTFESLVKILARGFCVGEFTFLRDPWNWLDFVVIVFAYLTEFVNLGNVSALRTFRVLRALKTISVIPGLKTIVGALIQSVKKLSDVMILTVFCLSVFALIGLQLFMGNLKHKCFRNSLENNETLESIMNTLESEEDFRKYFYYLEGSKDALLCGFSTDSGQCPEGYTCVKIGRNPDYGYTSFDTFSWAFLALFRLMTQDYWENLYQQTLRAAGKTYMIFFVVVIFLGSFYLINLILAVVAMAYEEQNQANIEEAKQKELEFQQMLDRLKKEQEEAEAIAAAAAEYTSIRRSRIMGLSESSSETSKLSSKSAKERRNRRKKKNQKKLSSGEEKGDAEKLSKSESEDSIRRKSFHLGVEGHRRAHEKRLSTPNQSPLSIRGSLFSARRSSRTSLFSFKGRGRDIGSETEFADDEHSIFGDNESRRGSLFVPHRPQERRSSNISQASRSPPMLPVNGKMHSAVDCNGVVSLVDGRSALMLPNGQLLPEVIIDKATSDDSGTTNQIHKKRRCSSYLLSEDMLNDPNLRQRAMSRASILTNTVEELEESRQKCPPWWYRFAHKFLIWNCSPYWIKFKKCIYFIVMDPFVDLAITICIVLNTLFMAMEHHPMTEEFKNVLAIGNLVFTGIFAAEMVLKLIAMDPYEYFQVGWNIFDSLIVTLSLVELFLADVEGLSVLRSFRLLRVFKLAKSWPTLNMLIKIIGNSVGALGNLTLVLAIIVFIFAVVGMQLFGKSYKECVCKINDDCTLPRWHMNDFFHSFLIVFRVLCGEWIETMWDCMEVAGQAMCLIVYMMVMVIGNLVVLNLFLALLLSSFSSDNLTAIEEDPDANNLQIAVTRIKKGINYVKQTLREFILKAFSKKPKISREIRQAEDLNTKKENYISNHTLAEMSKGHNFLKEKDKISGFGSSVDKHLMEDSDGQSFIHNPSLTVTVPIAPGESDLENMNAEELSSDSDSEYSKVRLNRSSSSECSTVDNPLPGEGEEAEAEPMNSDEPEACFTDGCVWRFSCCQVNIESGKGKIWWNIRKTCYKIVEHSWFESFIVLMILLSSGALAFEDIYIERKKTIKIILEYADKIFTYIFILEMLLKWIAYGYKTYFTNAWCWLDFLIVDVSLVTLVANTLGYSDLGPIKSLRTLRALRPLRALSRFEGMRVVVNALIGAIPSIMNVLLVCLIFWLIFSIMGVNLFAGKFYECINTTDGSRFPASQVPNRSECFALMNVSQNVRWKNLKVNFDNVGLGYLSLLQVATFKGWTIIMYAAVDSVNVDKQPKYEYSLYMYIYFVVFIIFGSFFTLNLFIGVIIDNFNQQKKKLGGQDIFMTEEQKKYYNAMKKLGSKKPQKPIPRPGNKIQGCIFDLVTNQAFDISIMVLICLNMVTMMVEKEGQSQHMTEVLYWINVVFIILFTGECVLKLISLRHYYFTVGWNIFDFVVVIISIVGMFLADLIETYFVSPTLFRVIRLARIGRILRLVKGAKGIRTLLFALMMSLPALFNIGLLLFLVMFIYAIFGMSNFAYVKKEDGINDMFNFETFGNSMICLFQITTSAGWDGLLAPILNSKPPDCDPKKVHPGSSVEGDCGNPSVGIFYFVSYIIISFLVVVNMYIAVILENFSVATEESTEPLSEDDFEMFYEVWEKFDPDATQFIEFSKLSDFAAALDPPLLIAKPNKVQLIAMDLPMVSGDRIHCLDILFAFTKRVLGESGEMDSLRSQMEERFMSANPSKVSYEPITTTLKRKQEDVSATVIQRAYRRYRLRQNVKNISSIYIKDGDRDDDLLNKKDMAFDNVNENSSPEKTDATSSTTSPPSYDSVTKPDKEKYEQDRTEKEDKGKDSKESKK
In general, IC50 refers to the concentration at which inhibition is half-maximal. As to `COc1cc(C(=O)N2CCC3(CC2)Oc2ccccc2-n2c(C(F)(F)F)ccc23)ccc1OCC(N)=O` [Compound 176], the IC50 was not above 2000 nM. With `CC(C)Oc1ccc(C(=O)N2CCC3(CC2)Oc2ccc(F)cc2-c2nn(C)cc23)cc1CO` [Compound 180], the IC50 was not above 2000 nM. Next, `COc1ccc(C(=O)N2CCC3(CC2)Oc2ccccc2-n2ccc(C)c23)cc1C(F)(F)F` [Compound 181]: not above 2000 nM; `Cn1ncc2c1-c1ccccc1OC21CCN(C(=O)c2ccc3c(c2)CC(C)(C)O3)CC1` [Compound 182]: 2000 to 5000 nM; `CC(C)Oc1ccc(C(=O)N2CCC3(CC2)Oc2ccccc2-c2c3cnn2C)c2ncccc12` [Compound 183]: not above 2000 nM. Regarding `O=C(c1ccc(OCCO)cc1)N1CCC2(CC1)Oc1ccccc1-n1cccc12` [Compound 184], the IC50 is not above 2000 nM.

As for `Cn1ncc2c1-c1ccccc1OC21CCN(C(=O)c2cccc3[nH]ccc23)CC1` [Compound 186], the IC50 is not above 2000 nM. Next, `COc1ccc(C(=O)N2CCC3(CC2)Oc2ccccc2-c2c3cnn2C)c(OC)c1` [Compound 187]: not above 2000 nM; `Cc1cc(OC(C)C)ccc1C(=O)N1CCC2(CC1)Oc1ccccc1-c1nn(C)cc12` [Compound 188]: not above 2000 nM. To `COc1ccc(OC)c(C(=O)N2CCC3(CC2)Oc2cc(Cl)ccc2-n2cccc23)c1` [Compound 189] belongs not above 2000 nM.

On to `CCCOc1ccc(C(=O)N2CCC3(CC2)Oc2ccccc2-c2c3cnn2C)cc1OC` [Compound 190], for which the IC50 is not above 2000 nM. As for `COc1cc(C(=O)N2CCC3(CC2)Oc2ccccc2-n2cccc23)ccc1OCCOC(F)(F)F` [Compound 191], the IC50 was not above 2000 nM. Next, `COC(C)(C)c1ccc(C(=O)N2CCC3(CC2)Oc2cc(Cl)ccc2-n2cccc23)cc1C` [Compound 193]: not above 2000 nM.

In the case of `Cn1ncc2c1-c1ccccc1OC21CCN(C(=O)c2cccc(F)c2OC(F)F)CC1` [Compound 194], the IC50 was not above 2000 nM. Turning to `CS(=O)(=O)c1ccc2n1-c1ccccc1OC21CCN(C(=O)c2ccccc2OC(F)F)CC1` [Compound 195], the 50% inhibitory concentration (IC50) is not above 2000 nM. Next, `COc1cc(C(=O)N2CCC3(CC2)Oc2cc(F)ccc2-n2cccc23)ccc1OC1CCC(O)C1` (stereo not drawn) [Compound 196]: not above 2000 nM.

Regarding `N#Cc1ccc2n1-c1ccccc1OC21CCN(C(=O)c2ccc(OCCO)cc2)CC1` [Compound 197], the IC50 was not above 2000 nM. For `CCCCc1nc2cc(C(=O)N3CCC4(CC3)Oc3ccccc3-n3c(C(F)(F)F)ccc34)ccc2o1` [Compound 198], the IC50 was not above 2000 nM. With `COc1cc(C(=O)N2CCC3(CC2)Oc2cc(Cl)ccc2-n2cccc23)ccc1OCC(C)(C)OC` [Compound 199], the IC50 was not above 2000 nM. To `CCc1ccc(C(=O)N2CCC3(CC2)Oc2cc(F)ccc2-n2cccc23)cc1OC` [Compound 200] belongs not above 2000 nM. Next, `Cc1cc(C(=O)N2CCC3(CC2)Oc2ccccc2-c2c3cnn2C)c(C)cc1OC(C)C` [Compound 202]: not above 2000 nM. For `COc1cc(C(=O)N2CCC3(CC2)Oc2ccccc2-n2cccc23)ccc1OC[C@@H](C)OC` [Compound 203], the 50% inhibitory concentration (IC50) was not above 2000 nM. On to `COc1ccc(C(=O)N2CCC3(CC2)Oc2ccccc2-c2c3cnn2C)c(OC(C)C)c1` [Compound 205], for which the IC50 was not above 2000 nM.

For the compound `COc1cc(C(=O)N2CCC3(CC2)Oc2ccccc2-n2c(C#N)ccc23)ccc1O` [Compound 206], the IC50 is not above 2000 nM. For the compound `CC(C)(C)S(=O)(=O)c1ccsc1C(=O)N1CCC2(CC1)Oc1ccccc1-n1c(C(F)(F)F)ccc12` [Compound 207], the IC50 was not above 2000 nM. To `CC(C)Oc1ccc(C(=O)N2CCC3(CC2)Oc2cc(C#N)ccc2-n2cccc23)cc1` [Compound 208] belongs not above 2000 nM. Next, `O=C(c1ccc(S(=O)(=O)NC2CC2)cc1)N1CCC2(CC1)Oc1ccccc1-n1cccc12` [Compound 209]: not above 2000 nM; `COCCOc1ccc(C(=O)N2CCC3(CC2)Oc2cc(Cl)ccc2-n2cccc23)cc1C` [Compound 211]: not above 2000 nM; `CCOc1ccccc1C(=O)N1CCC2(CC1)Oc1ccccc1-c1c2cnn1C` [Compound 212]: not above 2000 nM. Next, `Cc1cc(C(=O)N2CCC3(CC2)Oc2ccc(Cl)cc2-c2c3cnn2C)ccc1OC(C)C` [Compound 213]: not above 2000 nM. For the compound `O=C(c1cc2occc2[nH]1)N1CCC2(CC1)Oc1ccccc1-n1c(C(F)(F)F)ccc12` [Compound 214], the IC50 is more than 5000 nM. Next, `Cc1cc(C(=O)N2CCC3(CC2)Oc2cc(F)ccc2-n2cccc23)ccc1C#N` [Compound 215]: not above 2000 nM; `COc1cc(C(=O)N2CCC3(CC2)Oc2cc(Cl)ccc2-n2cccc23)ccc1C(C)(C)O` [Compound 216]: not above 2000 nM; `Cc1ccccc1C(=O)N1CCC2(CC1)Oc1ccccc1-c1c2cnn1C` [Compound 217]: 2000 to 5000 nM. For the compound `Cn1ncc2c1-c1ccccc1OC21CCN(C(=O)c2cn(C)c3ccccc23)CC1` [Compound 218], the IC50 was not above 2000 nM. Next, `COCc1ccccc1C(=O)N1CCC2(CC1)Oc1ccccc1-c1c2cnn1C` [Compound 219]: not above 2000 nM. To `CC(C)(C)c1ccc(C(=O)N2CCC3(CC2)Oc2cc(Cl)ccc2-n2cccc23)cc1C#N` [Compound 220] belongs not above 2000 nM; to `Cc1cc(C)cc(C(=O)N2CCC3(CC2)Oc2cc(Cl)ccc2-n2cccc23)c1` [Compound 222], not above 2000 nM.

For `COCCOc1ccc(C(=O)N2CCC3(CC2)Oc2ccccc2-n2c(C(F)(F)F)ccc23)cc1OC` [Compound 223], the IC50 is not above 2000 nM. To `Cc1nc2cccc(C(=O)N3CCC4(CC3)Oc3ccccc3-c3c4cnn3C)c2o1` [Compound 224] belongs not above 2000 nM. As to `COc1ccc(C(=O)N2CCC3(CC2)Oc2ccccc2-c2c3cnn2C)cc1Cl` [Compound 227], the IC50 lay within 2000 to 5000 nM. With `COc1cc(C(=O)N2CCC3(CC2)Oc2cc(F)ccc2-n2cccc23)ccc1OC[C@H]1COC(C)(C)O1` [Compound 228], the half-inhibitory concentration (IC50) was not above 2000 nM. To `Cn1cc2c(n1)-c1ccccc1OC21CCN(C(=O)c2ccc(C(C)(C)O)cc2)CC1` [Compound 230] belongs not above 2000 nM. To `C[C@](O)(CO)c1ccc(C(=O)N2CCC3(CC2)Oc2ccccc2-n2c(C(F)(F)F)ccc23)cc1` [Compound 231] belongs more than 5000 nM.

Regarding `CC(C)N(C)S(=O)(=O)c1ccc(C(=O)N2CCC3(CC2)Oc2ccccc2-c2c3cnn2C)cc1` [Compound 233], the IC50 is 2000 to 5000 nM. Next, `CC(=O)c1ccc2n1-c1ccccc1OC21CCN(C(=O)c2ccc(S(=O)(=O)NC3CC3)cc2)CC1` [Compound 235]: not above 2000 nM; `COc1ccc(C)cc1C(=O)N1CCC2(CC1)Oc1ccccc1-c1c2cnn1C` [Compound 236]: more than 5000 nM; `COC[C@@H](C)Oc1ccc(C(=O)N2CCC3(CC2)Oc2ccccc2-n2cccc23)cc1C(F)(F)F` [Compound 237]: not above 2000 nM.

`COCCCOc1ccc(C(=O)N2CCC3(CC2)Oc2cc(Cl)ccc2-n2cccc23)cc1C(F)(F)F` [Compound 238]: the IC50 is not above 2000 nM. Next, `CCc1ccc(C(=O)N2CCC3(CC2)Oc2ccccc2-n2cccc23)cc1OC` [Compound 239]: not above 2000 nM. Next, `COc1cc(OC)c(C(=O)N2CCC3(CC2)Oc2ccccc2-c2nn(C)cc23)cc1OC` [Compound 240]: 2000 to 5000 nM. To `O=C(c1ccccc1)N1CCC2(CC1)Oc1ccccc1-n1cccc12` [Compound 241] belongs more than 5000 nM; to `Cn1ncc2c1-c1ccccc1OC21CCN(C(=O)c2cccc(F)c2F)CC1` [Compound 242], more than 5000 nM. Turning to `Cn1ncc2c1-c1ccccc1OC21CCN(C(=O)c2ccc(S(=O)(=O)NC3CC3)cc2)CC1` [Compound 243], the half-maximal inhibitory concentration (IC50) is not above 2000 nM. Next, `CNC(=O)c1ccc2n1-c1ccc(Cl)cc1OC21CCN(C(=O)c2ccc(OC(C)C)c(C)c2)CC1` [Compound 245]: 2000 to 5000 nM; `CC(C)Oc1ccc(C(=O)N2CCC3(CC2)Oc2ccccc2-c2nn(C)cc23)c(F)c1` [Compound 246]: not above 2000 nM; `COc1cc(C(=O)N2CCC3(CC2)Oc2ccccc2-n2cccc23)ccc1OC(C)C` [Compound 247]: not above 2000 nM.

`COc1ccc(C(=O)N2CCC3(CC2)Oc2cc(F)ccc2-n2cccc23)cc1C(F)(F)F` [Compound 249]: the IC50 is not above 2000 nM. To `Cn1ccc(C(=O)N2CCC3(CC2)Oc2cc(Cl)ccc2-n2c(C(F)(F)F)ccc23)cc1=O` [Compound 250] belongs 2000 to 5000 nM; to `CCc1ccc(C(=O)N2CCC3(CC2)Oc2ccccc2-c2c3cnn2C)cc1OC` [Compound 251], not above 2000 nM; to `Cc1c(C(=O)N2CCC3(CC2)Oc2ccccc2-c2c3cnn2C)cnn1-c1ccccc1` [Compound 252], 2000 to 5000 nM. Next, `CCn1ncc2c1-c1ccccc1OC21CCN(C(=O)c2ccc(S(=O)(=O)C(C)C)cc2)CC1` [Compound 253]: not above 2000 nM; `Cc1cc(C(=O)N2CCC3(CC2)Oc2ncccc2-n2nccc23)ccc1OC(C)C` [Compound 255]: not above 2000 nM; `COc1cc(C(=O)N2CCC3(CC2)Oc2ccccc2-c2c3cnn2C)ccc1OC(C)C` [Compound 256]: not above 2000 nM. Take `CCc1ccc(C(=O)N2CCC3(CC2)Oc2ccccc2-c2sc(C)nc23)cc1OC` [Compound 257]: the IC50 is not above 2000 nM. Next, `Cn1ncc2c1-c1ccc(F)cc1OC21CCN(C(=O)c2ccccc2OC(F)F)CC1` [Compound 258]: not above 2000 nM; `COc1cccc(C)c1C(=O)N1CCC2(CC1)Oc1ccccc1-c1c2cnn1C` [Compound 259]: not above 2000 nM; `CC(C)S(=O)(=O)c1ccc(C(=O)N2CCC3(CC2)Oc2ccccc2-n2c(C(F)F)ccc23)cc1` [Compound 260]: 2000 to 5000 nM. As for `Cc1nc(C(=O)N2CCC3(CC2)Oc2ccccc2-c2nn(C)cc23)ccc1OC(C)C` [Compound 262], the IC50 was not above 2000 nM.
